Molecular target: T1, human GPR17 receptor (Homo sapiens, UniProt Q13304)
T1 construct: host or cells: HEK-293
Experiment: Calcium mobilization functional assay (Fluo-8, FLIPR TETRA) in HEK-293 hGPR17 (Gα-q assay)
Type: cell-based
Details: antagonism of MDL29,951 (~EC80) induced Ca2+ signal; cell line (HEK-293 hGPR17 or HEK-293 Suchi5 hGPR17) not given
Method: HEK-293 cells stably expressing the human GPR17 receptor (HEK-293 hGPR17) developed by Axxam (Bresso, Milan, Italy) were cultured at 37° C. in a humidified atmosphere of 5% CO2. Cells were grown in EMEM supplemented with FBS (10%), Penicillin/Streptomycin (1%), Ultraglutamine I (2 mM), puromycin (0.6 μg/mL), G418 (0.4 mg/mL), zeocin (50 μg/mL). This cell line was used to test the compound antagonistic activity by monitoring the Gα-q based signaling. Signaling via Gα-q leads to mobilization of calcium from internal stores. Elevated intracellular calcium levels can then be measured with calcium-sensitive fluorescent dyes (e.g., Fluo 8-No Wash Dye).
GPR17 activation leads to both an increase in intracellular calcium (via Gα-q) and a decrease in cAMP levels (via Gα-i), implicating that both of these pathways play a role for in vivo function.
Experiments were performed using the below cell lines, as described in part 1: • HEK-293 hGPR17 (used to study the compounds acting via Gα-q pathway) • HEK-293 Suchi5 hGPR17 (used to study the compounds acting via Gα-i pathway, where the Gα-i signaling is switched to a Gα-q signaling thanks to the Gα-i/q chimera Suchi5)
GPR17 activation was able to induce an endoplasmic reticulum calcium (Ca^2+) store release in cytosol which could be measured using the fluorescent Ca^2+ sensitive dye Fluo-8 No Wash Dye as readout.
HEK-293 hGPR17 and HEK-293 Suchi5 hGPR17 were seeded at a density of 15,000 cells/well into poly-D-lysine coated black 384-well plates with clear bottom in complete medium. Cells were incubated overnight at 37° C. in a humidified atmosphere of 5% CO2. Twenty-four hours after seeding, the culture medium was carefully removed manually and the cells were loaded for 60 minutes at room temperature with the Ca^2+ sensitive Fluo-8 No Wash Dye, according to manufacturer's instructions. Cells were then assayed using a fluorometric imaging plate reader (FLIPR^TETRA). Fluorescence (excitation: 470-495 nm; emission: 515-575 nm) was recorded during the experiment. […] After twenty minutes, a second injection of MDL29,951 at ˜EC80 (500 nM for HEK-293 hGPR17 and 2 nM for HEK-293 Suchi5 hGPR17) in assay buffer was performed at the FLIPR^TETRA and the signal of the emitted fluorescence was recorded for additional 2 minutes. All the compound injections and incubations were performed in duplicate. For data quality and data analysis the Screener® 16.0.6 (Genedata) software was used.

T1 sequence (Q13304 whole entry): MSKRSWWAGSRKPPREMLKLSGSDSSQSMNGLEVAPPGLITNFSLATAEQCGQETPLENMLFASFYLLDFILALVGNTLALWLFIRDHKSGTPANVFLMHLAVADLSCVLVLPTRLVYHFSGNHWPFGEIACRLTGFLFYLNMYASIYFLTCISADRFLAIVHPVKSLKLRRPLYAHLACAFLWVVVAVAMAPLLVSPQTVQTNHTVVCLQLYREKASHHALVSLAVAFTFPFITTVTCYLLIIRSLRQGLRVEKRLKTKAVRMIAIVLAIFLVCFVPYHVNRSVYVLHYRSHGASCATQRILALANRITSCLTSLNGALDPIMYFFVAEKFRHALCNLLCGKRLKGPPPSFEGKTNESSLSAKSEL

IC50	Compound
< 500 nM	N#Cc1ccc(NS(=O)(=O)c2c[nH]c(-c3cccc(Cl)c3F)c2)c(F)c1 [Cpd 039, 5-(3-chloro-2-fluoro-phenyl)-N-(4-cyano-2-fluoro-phenyl)-1H-pyrrole-3-sulfonamide]
< 500 nM	N#Cc1ccc(NS(=O)(=O)c2c[nH]c(-c3cccc(F)c3F)c2)c(F)c1 [Cpd 040, N-(4-cyano-2-fluoro-phenyl)-5-(2,3-difluorophenyl)-1H-pyrrole-3-sulfonamide]
< 500 nM	N#Cc1ccc(NS(=O)(=O)c2c[nH]c(-c3cc(F)ccc3F)c2)c(F)c1 [Cpd 041, N-(4-cyano-2-fluoro-phenyl)-5-(2,5-difluorophenyl)-1H-pyrrole-3-sulfonamide]
< 500 nM	Cc1cccc(-c2cc(S(=O)(=O)Nc3ccc(C#N)cc3F)c[nH]2)c1F [Cpd 042, N-(4-cyano-2-fluoro-phenyl)-5-(2-fluoro-3-methyl-phenyl)-1H-pyrrole-3-sulfonamide]
500 to 5000 nM	Cc1ccc(-c2cc(S(=O)(=O)Nc3ccc(C#N)cc3F)c[nH]2)c(F)c1 [Cpd 043, N-(4-cyano-2-fluoro-phenyl)-5-(2-fluoro-4-methyl-phenyl)-1H-pyrrole-3-sulfonamide]
< 500 nM	Cc1ccc(F)c(-c2cc(S(=O)(=O)Nc3ccc(C#N)cc3F)c[nH]2)c1 [Cpd 044, N-(4-cyano-2-fluoro-phenyl)-5-(2-fluoro-5-methyl-phenyl)-1H-pyrrole-3-sulfonamide]
500 to 5000 nM	N#Cc1ccc(NS(=O)(=O)c2c[nH]c(-c3ccc(Cl)cc3F)c2)c(F)c1 [Cpd 045, 5-(4-chloro-2-fluoro-phenyl)-N-(4-cyano-2-fluoro-phenyl)-1H-pyrrole-3-sulfonamide]
< 500 nM	N#Cc1ccc(NS(=O)(=O)c2c[nH]c(-c3cc(Cl)ccc3F)c2)c(F)c1 [Cpd 046, 5-(5-chloro-2-fluoro-phenyl)-N-(4-cyano-2-fluoro-phenyl)-1H-pyrrole-3-sulfonamide]
500 to 5000 nM	O=S(=O)(Nc1cc(F)c(F)cc1F)c1c[nH]c(-c2ccccc2F)c1 [Cpd 047, 5-(2-fluorophenyl)-N-(2,4,5-trifluorophenyl)-1H-pyrrole-3-sulfonamide]
500 to 5000 nM	O=S(=O)(Nc1ncc(Cl)cc1F)c1c[nH]c(-c2ccccc2F)c1 [Cpd 048, N-(5-chloro-3-fluoro-2-pyridyl)-5-(2-fluorophenyl)-1H-pyrrole-3-sulfonamide]
500 to 5000 nM	O=S(=O)(Nc1cccc2c1OCO2)c1c[nH]c(-c2ccccc2F)c1 [Cpd 049, N-(1,3-benzodioxol-4-yl)-5-(2-fluorophenyl)-1H-pyrrole-3-sulfonamide]
< 500 nM	O=S(=O)(Nc1cccc2nsnc12)c1c[nH]c(-c2ccccc2F)c1 [Cpd 050, N-(2,1,3-benzothiadiazol-4-yl)-5-(2-fluorophenyl)-1H-pyrrole-3-sulfonamide]
500 to 5000 nM	O=S(=O)(Nc1cc(F)ccc1F)c1c[nH]c(-c2ccccc2F)c1 [Cpd 051, N-(2,5-difluorophenyl)-5-(2-fluorophenyl)-1H-pyrrole-3-sulfonamide]
500 to 5000 nM	O=S(=O)(Nc1ccc(Cl)cc1F)c1c[nH]c(-c2ccccc2F)c1 [Cpd 052, N-(4-chloro-2-fluoro-phenyl)-5-(2-fluorophenyl)-1H-pyrrole-3-sulfonamide]
500 to 5000 nM	N#CCc1ccc(NS(=O)(=O)c2c[nH]c(-c3ccccc3F)c2)c(F)c1 [Cpd 053, N-[4-(cyanomethyl)-2-fluoro-phenyl]-5-(2-fluorophenyl)-1H-pyrrole-3-sulfonamide]
5000 to 50000 nM	O=S(=O)(Nc1ccc(F)cc1F)c1c[nH]c(-c2ccccc2F)c1 [Cpd 054, N-(2,4-difluorophenyl)-5-(2-fluorophenyl)-1H-pyrrole-3-sulfonamide]
500 to 5000 nM	O=S(=O)(Nc1ccc(C(F)(F)F)cc1F)c1c[nH]c(-c2ccccc2F)c1 [Cpd 055, 5-(2-fluorophenyl)-N-[2-fluoro-4-(trifluoromethyl)phenyl]-1H-pyrrole-3-sulfonamide]
5000 to 50000 nM	O=S(=O)(Nc1cccc(F)c1F)c1c[nH]c(-c2ccccc2F)c1 [Cpd 056, N-(2,3-difluorophenyl)-5-(2-fluorophenyl)-1H-pyrrole-3-sulfonamide]
500 to 5000 nM	Cc1ccc(NS(=O)(=O)c2c[nH]c(-c3ccccc3F)c2)c(F)c1 [Cpd 057, N-(2-fluoro-4-methyl-phenyl)-5-(2-fluorophenyl)-1H-pyrrole-3-sulfonamide]

IC50	Compound
500 to 5000 nM	N#Cc1ccc(NS(=O)(=O)c2c[nH]c(-c3ccccc3F)c2)cc1Cl [Cpd 058, N-(3-chloro-4-cyano-phenyl)-5-(2-fluorophenyl)-1H-pyrrole-3-sulfonamide]
500 to 5000 nM	COc1cc(NS(=O)(=O)c2c[nH]c(-c3ccccc3F)c2)ccc1C#N [Cpd 059, N-(4-cyano-3-methoxy-phenyl)-5-(2-fluorophenyl)-1H-pyrrole-3-sulfonamide]
500 to 5000 nM	COc1cc(C(F)(F)F)cnc1NS(=O)(=O)c1c[nH]c(-c2ccccc2F)c1 [Cpd 060, 5-(2-fluorophenyl)-N-[3-methoxy-5-(trifluoromethyl)pyridin-2-yl]-1H-pyrrole-3-sulfonamide]
< 500 nM	COc1cc(CC#N)cnc1NS(=O)(=O)c1c[nH]c(-c2ccccc2)c1 [Cpd 061, N-[5-(cyanomethyl)-3-methoxypyridin-2-yl]-5-phenyl-1H-pyrrole-3-sulfonamide]
500 to 5000 nM	COc1cc(Br)cnc1NS(=O)(=O)c1c[nH]c(-c2ccccc2)c1 [Cpd 062, N-(5-bromo-3-methoxypyridin-2-yl)-5-phenyl-1H-pyrrole-3-sulfonamide]
< 500 nM	COc1cc(C#N)c(F)cc1NS(=O)(=O)c1c[nH]c(-c2ccccc2)c1 [Cpd 063, N-(4-cyano-5-fluoro-2-methoxyphenyl)-5-phenyl-1H-pyrrole-3-sulfonamide]
500 to 5000 nM	N#Cc1cc(F)c(NS(=O)(=O)c2c[nH]c(-c3ccccc3)c2)c(F)c1 [Cpd 064, N-(4-cyano-2,6-difluoro-phenyl)-5-phenyl-1H-pyrrole-3-sulfonamide]
< 500 nM	N#CCOc1cc(F)c(NS(=O)(=O)c2c[nH]c(-c3ccccc3)c2)cc1F [Cpd 065, N-[4-(cyanomethoxy)-2,5-difluoro-phenyl]-5-phenyl-1H-pyrrole-3-sulfonamide]
500 to 5000 nM	N#Cc1ccc(NS(=O)(=O)c2c[nH]c(-c3ccncc3F)c2)c(F)c1 [Cpd 066, N-(4-cyano-2-fluoro-phenyl)-5-(3-fluoro-4-pyridyl)-1H-pyrrole-3-sulfonamide]
5000 to 50000 nM	Cc1[nH]cc(S(=O)(=O)Nc2ccc(C#N)cc2F)c1Cc1ccccc1 [Cpd 067, 4-benzyl-N-(4-cyano-2-fluorophenyl)-5-methyl-1H-pyrrole-3-sulfonamide]
< 500 nM	O=S(=O)(Nc1ncc(Cl)cc1F)c1c[nH]c(-c2ccccc2)c1 [Cpd 068, N-(5-chloro-3-fluoro-2-pyridyl)-5-phenyl-1H-pyrrole-3-sulfonamide]
500 to 5000 nM	O=S(=O)(Nc1cccc2c1OCO2)c1c[nH]c(-c2ccccc2)c1 [Cpd 069, N-(1,3-benzodioxol-4-yl)-5-phenyl-1H-pyrrole-3-sulfonamide]
< 500 nM	Cc1cc(F)c(NS(=O)(=O)c2c[nH]c(-c3ccccc3)c2)cc1F [Cpd 070, N-(2,5-difluoro-4-methyl-phenyl)-5-phenyl-1H-pyrrole-3-sulfonamide]
< 500 nM	O=S(=O)(Nc1cc(F)c(C(F)(F)F)cc1F)c1c[nH]c(-c2ccccc2)c1 [Cpd 071, N-[2,5-difluoro-4-(trifluoromethyl)phenyl]-5-phenyl-1H-pyrrole-3-sulfonamide]
< 500 nM	N#Cc1ccc(NS(=O)(=O)c2c[nH]c(-c3ccccc3F)c2)cc1F [Cpd 072, N-(4-cyano-3-fluoro-phenyl)-5-(2-fluorophenyl)-1H-pyrrole-3-sulfonamide]
< 500 nM	O=S(=O)(Nc1cc(F)c(C(F)(F)F)cc1F)c1c[nH]c(-c2ccccc2F)c1 [Cpd 073, N-[2,5-difluoro-4-(trifluoromethyl)phenyl]-5-(2-fluorophenyl)-1H-pyrrole-3-sulfonamide]
< 500 nM	N#Cc1cc(F)c(NS(=O)(=O)c2c[nH]c(-c3ccccc3F)c2)cc1F [Cpd 074, N-(4-cyano-2,5-difluoro-phenyl)-5-(2-fluorophenyl)-1H-pyrrole-3-sulfonamide]
< 500 nM	Cc1cc(F)c(NS(=O)(=O)c2c[nH]c(-c3ccccc3F)c2)cc1F [Cpd 075, N-(2,5-difluoro-4-methyl-phenyl)-5-(2-fluorophenyl)-1H-pyrrole-3-sulfonamide]
